According to PMC6988731 (Bioorganic & medicinal chemistry, 2011):

Target: rat TRPV1 (Rattus norvegicus, UniProt O35433)
Test: competitive binding assay with [3H]RTX, rat TRPV1 expressed in CHO cells
Details: rTRPV1/CHO; for fold less potent than parent 3: receptor activity (binding affinity and antagonism), relative to 3; for fold reduction in binding affinity and antagonism compared to 50: relative to 50

Chain of rat TRPV1 (O35433 whole entry): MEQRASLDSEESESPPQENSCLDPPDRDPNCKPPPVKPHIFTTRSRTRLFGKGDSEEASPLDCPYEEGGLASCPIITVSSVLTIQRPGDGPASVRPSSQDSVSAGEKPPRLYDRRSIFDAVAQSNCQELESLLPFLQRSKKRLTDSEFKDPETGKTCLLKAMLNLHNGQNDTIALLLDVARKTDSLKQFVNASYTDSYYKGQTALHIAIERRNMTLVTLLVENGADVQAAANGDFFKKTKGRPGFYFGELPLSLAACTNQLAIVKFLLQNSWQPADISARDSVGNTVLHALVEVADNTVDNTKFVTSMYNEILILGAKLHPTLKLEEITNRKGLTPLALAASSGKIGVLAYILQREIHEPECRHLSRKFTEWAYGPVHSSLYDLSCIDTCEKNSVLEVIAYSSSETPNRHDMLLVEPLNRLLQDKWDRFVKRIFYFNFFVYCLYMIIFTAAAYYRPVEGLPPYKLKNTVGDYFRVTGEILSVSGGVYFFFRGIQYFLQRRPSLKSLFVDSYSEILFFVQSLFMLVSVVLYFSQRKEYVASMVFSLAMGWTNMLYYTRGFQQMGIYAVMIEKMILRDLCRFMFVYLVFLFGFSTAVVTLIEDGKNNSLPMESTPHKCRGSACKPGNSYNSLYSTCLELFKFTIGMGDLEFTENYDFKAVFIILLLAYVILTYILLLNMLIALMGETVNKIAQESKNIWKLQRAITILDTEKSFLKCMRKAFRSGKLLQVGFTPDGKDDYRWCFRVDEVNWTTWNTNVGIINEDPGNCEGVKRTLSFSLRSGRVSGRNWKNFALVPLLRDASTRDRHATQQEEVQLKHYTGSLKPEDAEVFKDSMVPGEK

SMILES: CC(C(=O)NCc1ccc(I)cc1)c1ccc(NS(C)(=O)=O)c(F)c1 (stereo not shown) [compound 24, 2-(3-Fluoro-4-methanesulfonylamino-phenyl)-N-(4-iodo-benzyl)-propionamide]
- fold less potent than parent 3: 10 fold

SMILES: Cc1ccc(CCCNC(=O)C(C)c2ccc(NS(C)(=O)=O)c(F)c2)cc1C (stereo not shown) [compound 40, N-[3-(3,4-Dimethylphenyl)propyl]-2-[3-fluoro-4-(methylsulfonylamino)phenyl]propionamide]
- fold less potent than parent 3: ca. 10 fold

SMILES: CC(C(=O)NCC=C1c2ccccc2CCc2ccccc21)c1ccc(NS(C)(=O)=O)c(F)c1 (stereo not shown) [compound 59, N-[2-(10,11-Dihydro-5H-dibenzo[a,d]cyclohepten-5-yliden)ethyl]-2-[3-fluoro-4-(methylsulfonylamino)phenyl]propionamide]
- fold reduction in binding affinity and antagonism compared to 50: 5–10 fold

SMILES: CC(C(=O)NCC=C1c2ccccc2C=Cc2ccccc21)c1ccc(NS(C)(=O)=O)c(F)c1 (stereo not shown) [compound 60, N-[2-Dibenzo[a,d]cyclohepten-5-ylidene-ethyl]-2-(3-fluoro-4-methylsulfonylamino-phenyl)-propionamide]
- fold reduction in binding affinity and antagonism compared to 50: 5–10 fold
